The text below walks through data of PubChem BioAssay (NCI).

Where “and” joins values, the source holds several entries; their conditions need not be identical. Equal entries are not always repeated.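 Step 1: Grow cells in 96-well plates. Step 2: Expose to compound for 48 hours at 5 concentrations. Step 3: Interpolate endpoints linearly; if unreached, use highest concentration. The concentration for 50% growth inhibition is given as GI50. Definition used: TGI = concentration required for complete inhibition of growth.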 A value given as a limit tells only on which side of the number the result lay.

Assay in all cases: inhibition of tumour cell growth, NCI panel, 48 h
Test [1] relates to RPMI-8226 leukemia.
Test [2] concerns A498 renal.
Test [3] deals with SF-295 CNS.
The test system of test [4] is SNB-75 CNS.
Test [5] relates to SW-620 colon.
Test [6] has as its system SK-MEL-5 melanoma.
The test system of test [7] is RXF 393 renal.
Test [8] relates to OVCAR-5 ovarian.
Test [9] concerns K-562 leukemia.
For test [10], the system named is SR leukemia.

Take `CCCCCCCC(=O)OCC1OC(n2cc(F)c(=O)[nH]c2=O)C(N)C(OC(=O)CCCCCCC)C1O` (stereo not given): the TGI is 53.5 µM in test [1]; 39.1 µM in test [2]; 31.3 µM in test [3]; 28.4 µM in [4]; 33.6 µM in [5]; 22.3 µM in test [6]. In addition, in test [7], the TGI was found to be 31.9 µM.
For the molecule `COc1cc(OC)c(OC)cc1/C=N/NC(=O)N/N=C/c1cc(OC)c(OC)cc1OC`, the TGI in [8] is > 100 µM; in test [1], > 100 µM; in test [2] it was > 100 µM; in test [3], > 100 µM; in test [4], 52.3 µM; in test [5], > 100 µM. Moreover, the TGI in [9] and in [6] was > 100 µM throughout.
For the molecule `O/N=C1\CCCCC1C(NO)c1ccccc1` (stereo not given), the TGI in test [8], in test [1], in test [2], in test [3], in test [4] and in test [5] was > 100 µM throughout. In addition, the TGI in test [9] and in [7] was > 100 µM in each case.
On to `CCC(C)(C)n1c(C)nc2c1C(=O)c1ccccc1C2=O`, for which the TGI in test [10] was 42.7 µM; in [3], > 100 µM; in test [4], > 100 µM; in [5], > 100 µM; in [9], > 100 µM; in test [6] it was 33.7 µM. In test [7], the TGI is 59.4 µM.
For the molecule `NNc1ncnc2nc[nH]c12`, the GI50 in test [8] was 3.18 µM; in [1], 2.09 µM; in [2] it was 5.41 µM; in test [3], 3.95 µM; in test [4] it was 24.7 µM; in test [5], 3.91 µM. Further, the GI50 was 3.4 µM in test [9], 6.05 µM in test [6] and 7.16 µM in test [7]. The TGI in [8] is > 40.4 µM; in test [1], 17.1 µM; in test [2], > 100 µM; in [3], > 72.6 µM; in test [4], > 100 µM; in test [5], > 100 µM. Also, the TGI was > 100 µM in [9], 36.4 µM in test [6] and > 100 µM in test [7].
`COc1ccc(NC(=O)CSc2nnc(-c3ccc(NC(C)=O)cc3)o2)cc1`: the TGI is > 100 µM in [8]; 30.2 µM in test [2]; 68.5 µM in test [3]; > 100 µM in test [4]; > 100 µM in test [9]; 27.7 µM in test [6]. The molecule also registered a TGI in [7] of 28.7 µM.
As to `CCCCCCCCSC1=C(Cl)C(=O)C(OC)=C(OC)C1=O`, the TGI in [8] is 21.1 µM; in test [1], > 100 µM; in [2] it was 27.9 µM; in [3], 47.4 µM; in test [4], 46.3 µM; in test [5], 84 µM. Moreover, the TGI in [9] is > 100 µM; in test [6], 18.6 µM; in test [7], 30.3 µM.
Consider `C=C(CN(C)Cc1ccccc1)c1ccc(NC(=O)c2ccc(C(=C)CN(C)Cc3ccccc3)cc2)cc1`, for which the GI50 in test [8] is > 100 µM; in [1], 21.7 µM; in test [2], 20.8 µM; in [3] it was 71.4 µM; in test [4] it was 13.9 µM; in [5] it was 96.7 µM. For the same molecule, the GI50 in [9] is 45 µM; in test [6] it was 68.3 µM; in [7], 32 µM. The TGI in [8] was > 100 µM; in test [1] it was 53.6 µM; in test [2] it was 48.9 µM; in test [3] it was > 100 µM; in test [4], 32.2 µM; in test [5] it was > 100 µM. In addition, the TGI in test [9] was > 100 µM; in [6], > 100 µM; in test [7] it was 99.3 µM.
Turning to `N#CC(I)CS(=O)(=O)c1ccccc1` (stereo not given), the GI50 was 18.9 µM in test [8]; 17.5 µM in test [1]; 35.4 µM in test [2]; > 100 µM in test [3]; 15.6 µM in test [4]; 1.78 µM in test [5]. In addition, the results for the GI50 in [6] and in test [7] were 17.7 µM and 4.1 µM, respectively. The TGI in test [8] is 33.6 µM; in test [1] it was 41.4 µM; in [2], > 100 µM; in [3], > 100 µM; in test [4], 36 µM; in [5], 3.49 µM. Besides, the TGI was found to be 31.9 µM in [6] and 13 µM in test [7].
`Cc1nc2c(N)ncnc2o1`: the TGI in test [8], in [2], in test [3], in test [4], in [5] and in test [9] was > 100 µM throughout. The TGI in test [6] and in test [7] was > 100 µM each time.
Regarding `O=C1C=C(Nc2ccc(Cl)cc2C(=O)c2ccccc2)c2ccccc2C1=O`, the TGI in test [8], in test [2], in test [3], in [4], in test [5] and in test [9] was > 100 µM throughout. For the same molecule, the TGI in test [6] and in [7] was > 100 µM throughout.
For `COC(=N)c1csc(C2OC(CO)C(O)C2O)n1` (stereo not given), the TGI in [8], in [1], in test [2], in test [3], in test [5] and in [9] was > 100 µM each time.
With `Cc1nc2sccn2c1-c1nc2sccn2c1/C=C1/C(=O)Nc2ccccc21`, the GI50 was 12.9 µM in [8]; 2.04 µM in [2]; 2.12 µM in test [3]; 2.38 µM in test [4]; 2.32 µM in test [5]; > 100 µM in test [9]. The GI50 in test [6] was 2.94 µM. For the same molecule, the TGI in test [8] was > 100 µM; in test [2] it was 8.26 µM; in [3], 8.09 µM; in test [4] it was 16 µM; in test [5] it was 7.61 µM; in test [9], > 100 µM. Moreover, the TGI in test [6] is 12.5 µM.
Consider `Cc1nc2c(Br)cc(Br)cc2c(=O)n1-c1nnc(-c2cccc(Cl)c2Cl)c(N)n1`, for which the GI50 in [8] was 26.6 µM; in test [1], 9.39 µM; in test [3] it was 13.2 µM; in test [4], 33.6 µM; in [5] it was 33.8 µM; in [9], 3.4 µM. Moreover, the GI50 in test [6] was 17.2 µM; in test [7], 26.2 µM. Also, the TGI in test [8] was 74.5 µM; in [1], 87 µM; in test [3] it was 41.1 µM; in test [4], > 100 µM; in test [5] it was > 100 µM; in test [9] it was 22.6 µM. The TGI in [6] was 39 µM; in [7] it was > 100 µM.
For the molecule `CCOC(=O)Nc1c(C)nc2ccccn12`, the GI50 in [8], in test [1], in [2], in test [3], in test [4] and in test [5] was > 100 µM each time. Moreover, the GI50 in test [9], in [6] and in test [7] was > 100 µM in each case. Besides, the TGI in [8], in test [1], in [2], in [3], in test [4] and in [5] was > 100 µM in each case. For the same molecule, the TGI in test [9], in [6] and in test [7] was > 100 µM in each case.
As to `COc1cc(/C=C2\CCCCC3=C2N=C2SC(C)=CN2C3c2cc(OC)c(OC)c(OC)c2)cc(OC)c1OC` (stereo not given), the GI50 is > 100 µM in [8]; 0.013 µM in [1]; 18 µM in test [3]; 1.9 µM in test [4]; > 100 µM in test [5]; 0.36 µM in test [9]. Moreover, the GI50 in [6] is 0.077 µM; in [7] it was 3.06 µM. Further, the TGI is > 100 µM in test [8]; > 100 µM in test [1]; > 100 µM in test [3]; 9.09 µM in [4]; > 100 µM in [5]; > 100 µM in test [9]. Moreover, the TGI is 21 µM in [6] and > 100 µM in test [7].
Take `COC(=O)c1c2c(c(C)[n+]([O-])c1C)C(=O)C(NCc1ccc(Br)cc1)=CC2=O`: the GI50 was 1.62 µM in test [2]; 2.2 µM in [4]; 2.38 µM in test [9]; 0.867 µM in test [6]; 1.99 µM in test [7]. Also, the TGI in test [2] was 4.35 µM; in [4], 6.79 µM; in test [9], > 100 µM; in test [6] it was 2.11 µM; in test [7], 5.96 µM.
On to `O=C(c1ccc([N+](=O)[O-])cc1[N+](=O)[O-])N(/N=C/C=C/c1ccccc1)c1nnc(-c2ccccc2)c(-c2ccccc2)n1`, for which the TGI in [8] was > 100 µM; in [1] it was > 100 µM; in test [2] it was 95.2 µM; in [3], > 100 µM; in [4], 86.8 µM; in [5], > 100 µM. The values for the TGI in test [9], in [6] and in [7] were 57.3 µM, > 100 µM and 71.1 µM, respectively.
Regarding `NC(N)=Nc1nc2ccccc2o1`, the GI50 in test [8], in test [10], in [3], in [4], in test [5] and in test [9] was > 100 µM throughout. Besides, the GI50 in test [6] and in test [7] was > 100 µM in each case. The TGI in test [8], in test [10], in test [3], in test [4], in test [5] and in test [9] was > 100 µM each time. Besides, the TGI in [6] and in test [7] was > 100 µM each time.
For `CC1=C(C(=O)Nc2ccccc2)C(c2ccc(Cl)c(Cl)c2)C(C(=O)Nc2ccccc2)=C(C)N1`, the TGI in test [8] was 32.4 µM; in test [2], 33.4 µM; in test [3] it was 25.5 µM; in test [4], 35 µM; in test [5], 34.7 µM; in test [6], 28.7 µM. For the same molecule, the TGI in test [7] was 21.7 µM.
On to `O=c1[nH]c(=O)n(C2CC(O)C(CO)O2)cc1OS(=O)(=O)C(F)(F)F` (stereo not given), for which the TGI in test [8], in test [1], in test [2], in [3], in [4] and in [5] was > 100 µM in each case. For the same molecule, the TGI in [9], in test [6] and in test [7] was > 100 µM throughout.
Consider `C=C(C)C(C1C=C(CCC(C=O)=C(C)C)C(=O)O1)C1(OC)C=C(C)C(=O)O1` (stereo not given), for which the GI50 in test [8] is > 100 µM; in test [1], > 100 µM; in [3], > 100 µM; in test [4], > 100 µM; in test [5], 39.6 µM; in test [9], 73.2 µM. The GI50 in test [6] is 71.4 µM. Moreover, the TGI in test [8], in [1], in test [3], in [4], in test [5] and in test [9] was > 100 µM in each case. Besides, the TGI in test [6] is > 100 µM.
Consider `COc1ccc2c(=O)oc3c(OC)cc(CCN(C)C)c4c(=O)oc1c2c34`, for which the TGI in [8] was 31.9 µM and 22.3 µM; in [1], 41.3 µM and 19.8 µM; in test [2] it was 34.8 µM and 17.6 µM; in test [3], 28.5 µM and 14.3 µM; in test [4] it was 31.5 µM and 17.2 µM; in test [5] it was 28.1 µM and 17.4 µM. In addition, the TGI was 5.4 µM in test [9]; 24.7 µM and 14.7 µM in test [6]; 35.2 µM and 16.8 µM in [7]. Further, the GI50 in test [1] was 18.1 µM and 8.54 µM; in test [3], 15 µM and 6.99 µM; in test [4] it was 16.4 µM and 8.17 µM; in [5], 14 µM and 5.86 µM; in test [7], 18 µM and 7.95 µM.
For `O=[N+]([O-])c1cccnc1N=Nc1c(O)[nH]c2ccccc12`, the TGI in [8] was 49.2 µM; in test [1], 79.2 µM; in test [2] it was > 100 µM; in test [3], 38.7 µM; in test [4], 44.3 µM; in [5] it was 87.8 µM. In test [9], the TGI was > 100 µM.
